Laboratory results from patent US20140221340A1 (KYOWA HAKKO KIRIN CO., LTD., priority 2011, published 2014).

molecular target: T1, human CCR10 (Homo sapiens, UniProt P46092); test: Calcium assay of human CCR10 (inhibition of CTACK-induced increase in intracellular calcium ion concentration in hCCR10G16 cells); format: cell-based; conditions: test compound 100 nmol/L; human recombinant CTACK; hCCR10G16 cells (KJMGER8/Namalwa-derived, Gα16 co-expressed); FLIPR or FDSS
T1 construct: expressed in transfected cells; host or cells: KJMGER8 cell (cell line derived from Namalwa cell); expression induced with 10 nmol/L β-estradiol
T1 sequence (P46092 1-362): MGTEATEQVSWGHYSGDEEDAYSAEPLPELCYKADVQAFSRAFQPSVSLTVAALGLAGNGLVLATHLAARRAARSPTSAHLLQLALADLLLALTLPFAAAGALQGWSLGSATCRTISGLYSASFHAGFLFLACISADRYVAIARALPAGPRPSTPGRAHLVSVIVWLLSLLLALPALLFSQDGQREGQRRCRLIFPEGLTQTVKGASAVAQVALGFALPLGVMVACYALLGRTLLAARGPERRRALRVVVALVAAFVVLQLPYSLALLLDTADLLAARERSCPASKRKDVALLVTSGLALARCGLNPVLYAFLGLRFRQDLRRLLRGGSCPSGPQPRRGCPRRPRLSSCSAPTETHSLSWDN
Method: A CCR10-inducible expression plasmid was produced according to a known method (“Analytical Biochemistry”, 2006, vol. 400, page 163). A DNA encoding human CCR10 was obtained by PCR. Using human chromosomal DNA (100 ng; manufactured by Clontech Laboratories, Inc.) as a template, a synthetic DNA having the sequences shown by SEQ ID NOs: 1 and 2 as a human CCR10 cDNA specific primer, and Pyrobest DNA Polymerase (manufactured by TAKARA SHUZO CO. LTD.) as an enzyme, a DNA encoding human CCR10 was obtained by PCR. As a buffer solution for PCR, the buffer solution attached to the enzyme was diluted 10-fold with deionized water and used. Using Thermal Cycler DNA Engine (manufactured by MJ Research), PCR was performed by 35 cycles of reactions composed of an incubation at 90° C. for 2 min, at 94° C. for 30 seconds, at an anneal temperature of 58° C. for 30 seconds, and at 72° C. for 1 min.
The amplified PCR fragment was cleaved with HindIII and NotI, then a human CCR10 DNA fragment was recovered by an agarose gel electrophoresis method. The fragment was incorporated in between the corresponding restriction enzyme sites (HindIII-NotI) of an inducible expression vector, whereby a human CCR10-inducible expression plasmid were prepared.
Using a primer specific to the sequence of the plasmid (synthetic DNA having the sequences shown by SEQ ID NOs: 3 and 4), the sequence of human CCR10 DNA region was determined. For the determination of the base sequence, DNA sequencer 377 (manufactured by PerkinElmer) and a reaction kit (ABI Prism (registered trade mark) BigDye (registered trade mark) Terminator Cycle Sequencing Ready Reaction kit: manufactured by Applied Biosystems) were used. The sequence of human CCR10 DNA matched with the sequence (NM_016602) registered in GenBank.
Cells for the detection of the signal from human CCR10 by a calcium assay were prepared. Human CCR10-inducible expressing cells whose host cell is KJMGER8 cell (cell line derived from Namalwa cell) were prepared according to a known method (“Analy Biochem”, 2006, vol. 400, page 163). Human CCR10-inducible expression plasmid produced above and Gα16 expression plasmid were co-transfected into KJMGER8 cell by an electroporation method (“Cytotechnology”, 1990, vol. 3, page 133), whereby a signal from human CCR10 could be detected by a calcium assay (hereinafter to be referred to as hCCR10G16 cell). Gα16 expression plasmid was produced by incorporating human Gα16 DNA into expression vector pAMoh (WO03/087366). Induced expression of human CCR10 was performed by cultivating hCCR10G16 cells in the presence of 10 nmol/L β-estradiol (manufactured by Sigma Ltd.) for 24 hr.
Cells expressing human CCR10 induced by the above-mentioned method were suspended in RPMI1640 medium and adjusted to cell density of 1.25×10^6 cells/mL. This mixture was dispensed to a 384 well clear bottom plate (manufactured by Corning Incorporated) at 20 μL/well, and these were incubated at 37° C. for several dozen minutes. A loading buffer prepared according to the protocol attached to FLIPR Calcium 3 assay kit (manufactured by Molecular Device) was dispensed to this plate at 20 μL/well, and the plate was incubated at 37° C. for 60 min. A 33 μmol/L DMSO solution of the test compound was diluted 37-fold with RPMI1640 medium and the resulting solution was added at 5 μL/well, and the mixture was incubated at 37° C. for 30 min. 300 nmol/L human recombinant CTACK (manufactured by R and D Systems) diluted with RPMI1640 medium containing 1 w/v % bovine serum albumin was added at 5 μL/well. Change of the intracellular calcium ion concentration for about 5 min after the addition was measured by FLIPR (manufactured by Molecular Device) or FDSS (manufactured by Hamamatsu Photonics K.K.). The difference between the maximum fluorescence intensity and the minimum fluorescence intensity for 5 min was calculated, and taken as the measurement value (maximum fluorescence intensity−minimum fluorescence intensity). […]

Question: With `Cc1cc(F)ccc1Nc1c(C(=O)N2CCC(c3ccccc3)CC2)cnc2c(S(=O)(=O)N=CN(C)C)cnn12` [a-73, N-[7-(4-Fluoro-2-methylphenylamino)-6-(4-phenylpiperidine-1-carbonyl)pyrazolo[1,5-a]pyrimidin-3-ylsulfonyl]-N,N-dimethylformimidamide] as the compound, how does the “Inhibitory rate (%) for an increase in calcium ion concentration” value read?
Answer: 68.9%

same assay, conditions: test compound 100 nmol/L; human recombinant CTACK; hCCR10G16 cells (KJMGER8/Namalwa-derived, Gα16 co-expressed); FLIPR or FDSS; read-out: Inhibitory rate (%) for an increase in calcium ion concentration

Question: For `CCNC(=O)NS(=O)(=O)c1cnn2c(Nc3cc(Cl)ccc3F)c(C(=O)N3CCC(c4ccc(F)cc4)CC3)cnc12` [a-34, 7-(5-Chloro-2-fluorophenylamino)-N-(ethylcarbamoyl)-6-[4-(4-fluorophenyl)piperidine-1-carbonyl]pyrazolo[1,5-a]pyrimidine-3-sulfonamide], which inhibition at 0.1 µM is on record?
Answer: > 100%

Question: With `COC(=O)NS(=O)(=O)c1cnn2c(Nc3cc(C)ccc3C)c(C(=O)N3CCC(c4ccccc4)CC3)cnc12` [a-74, Methyl 7-(2,5-dimethylphenylamino)-6-(4-phenylpiperidine-1-carbonyl)pyrazolo[1,5-a]pyrimidin-3-ylsulfonylcarbamate] as the compound, how does the inhibition at 0.1 µM read?
Answer: > 100%

Question: With `CC1(C(=O)NS(=O)(=O)c2cnn3c(Nc4cc(Cl)ccc4Cl)c(C(=O)N4CCC(c5ccc(F)cc5)CC4)cnc23)COC1` [a-25, N-{7-(2,5-Dichlorophenylamino)-6-[4-(4-fluorophenyl)piperidine-1-carbonyl]pyrazolo[1,5-a]pyrimidin-3-ylsulfonyl}-3-methyloxetane-3-carboxamide] as the compound, how does the inhibition at 0.1 µM read?
Answer: > 100%

Question: With `CCNC(=O)NS(=O)(=O)c1cnn2c(Nc3ccccc3Cl)c(C(=O)N3CCC(c4ccccc4)CC3)cnc12` [a-7, 7-(2-Chlorophenylamino)-N-(ethylcarbamoyl)-6-(4-phenylpiperidine-1-carbonyl)pyrazolo[1,5-a]pyrimidine-3-sulfonamide] as the compound, how does the inhibition at 0.1 µM read?
Answer: 92.4%

Question: For `CCNS(=O)(=O)c1cnn2c(Nc3ccc(F)cc3C)c(C(=O)N3CCC(c4ccc(F)cc4)CC3)cnc12` [a-3, N-Ethyl-7-(4-fluoro-2-methylphenylamino)-6-[4-(4-fluorophenyl)piperidine-1-carbonyl]pyrazolo[1,5-a]pyrimidine-3-sulfonamide], which inhibition at 0.1 µM is on record?
Answer: > 100%

Question: For `CC(=O)NS(=O)(=O)c1cnn2c(Nc3cc(Cl)ccc3Cl)c(C(=O)N3CCC(c4ccc(F)cc4)CC3)cnc12` [a-24, N-{7-(2,5-Dichlorophenylamino)-6-[4-(4-fluorophenyl)piperidine-1-carbonyl]pyrazolo[1,5-a]pyrimidin-3-ylsulfonyl}acetamide], which inhibition at 0.1 µM is on record?
Answer: > 100%

Question: Which inhibition at 0.1 µM does the source give for `CCC(=O)NS(=O)(=O)c1cnn2c(Nc3ccc(C)cc3F)c(C(=O)N3CCC4(CC3)OCc3ccccc34)cnc12` [a-48, N-{7-(2-Fluoro-4-methylphenylamino)-6-[3H-spiro(isobenzofuran-1,4′-piperidine)-1′-carbonyl]pyrazolo[1,5-a]pyrimidin-3-ylsulfonyl}propionamide] here?
Answer: > 100%

Question: For `COCCNS(=O)(=O)c1cnn2c(Nc3ccccc3Cl)c(C(=O)N3CCC(c4ccc(F)cc4)CC3)cnc12` [a-11, 7-(2-Chlorophenylamino)-6-[4-(4-fluorophenyl)piperidine-1-carbonyl]-N-(2-methoxyethyl)pyrazolo[1,5-a]pyrimidine-3-sulfonamide], which inhibition at 0.1 µM is on record?
Answer: 28.9%

Question: With `Cc1cc(F)ccc1Nc1c(C(=O)N2CCC(c3ccccc3)CC2)cnc2c(S(=O)(=O)NC(=O)C(F)(F)F)cnn12` [a-70, 2,2,2-Trifluoro-N-[7-(4-fluoro-2-methylphenylamino)-6-(4-phenylpiperidine-1-carbonyl)pyrazolo[1,5-a]pyrimidin-3-ylsulfonyl]acetamide] as the compound, how does the inhibition at 0.1 µM read?
Answer: > 100%

Question: `CC(=O)NS(=O)(=O)c1cnn2c(Nc3cc(Cl)ccc3F)c(C(=O)N3CCC(c4ccc(F)cc4)CC3)cnc12` [a-33, N-{7-(5-Chloro-2-fluorophenylamino)-6-[4-(4-fluorophenyl)piperidine-1-carbonyl]pyrazolo[1,5-a]pyrimidin-3-ylsulfonyl}acetamide] was tested. Which inhibition at 0.1 µM did it give?
Answer: > 100%

Question: `CCNS(=O)(=O)c1cnn2c(Nc3cc(C)ccc3Cl)c(C(=O)N3CCC(c4ccc(F)cc4)CC3)cnc12` [a-15, N-Ethyl-7-(2-chloro-5-methylphenylamino)-6-[4-(4-fluorophenyl)piperidine-1-carbonyl]pyrazolo[1,5-a]pyrimidine-3-sulfonamide] was tested. Which inhibition at 0.1 µM did it give?
Answer: 87.8%

Question: With `O=C(NS(=O)(=O)c1cnn2c(Nc3cc(Cl)ccc3Cl)c(C(=O)N3CCC4(CC3)OCc3ccccc34)cnc12)C1CC1` [a-54, N-{7-(2,5-Dichlorophenylamino)-6-[3H-spiro(isobenzofuran-1,4′-piperidine)-1′-carbonyl]pyrazolo[1,5-a]pyrimidin-3-ylsulfonyl}cyclopropanecarboxamide] as the compound, how does the inhibition at 0.1 µM read?
Answer: > 100%

Question: `CCC(=O)NS(=O)(=O)c1cnn2c(Nc3cc(Cl)ccc3Cl)c(C(=O)N3CCC(c4ccc(F)cc4)CC3)cnc12` [a-22, N-{7-(2,5-Dichlorophenylamino)-6-[4-(4-fluorophenyl)piperidine-1-carbonyl]pyrazolo[1,5-a]pyrimidin-3-ylsulfonyl}propionamide] was tested. Which inhibition at 0.1 µM did it give?
Answer: > 100%

Question: `Cc1cc(F)ccc1Nc1c(C(=O)N2CCC(c3ccccc3)CC2)cnc2c(S(=O)(=O)NC(=O)C3CC3)cnn12` [a-1, N-[7-(4-Fluoro-2-methylphenylamino)-6-(4-phenylpiperidine-1-carbonyl)pyrazolo[1,5-a]pyrimidin-3-ylsulfonyl]cyclopropanecarboxamide] was tested. Which inhibition at 0.1 µM did it give?
Answer: 93.4%

Question: How did the inhibition at 0.1 µM turn out when `CCNC(=O)NS(=O)(=O)c1cnn2c(Nc3ccc(C)cc3F)c(C(=O)N3CCC4(CC3)OCc3ccccc34)cnc12` [a-49, 7-(2-Fluoro-4-methylphenylamino)-N-(ethylcarbamoyl)-6-[3H-spiro(isobenzofuran-1,4′-piperidine)-1′-carbonyl]pyrazolo[1,5-a]pyrimidine-3-sulfonamide] was run?
Answer: > 100%

Question: For `COC(=O)NS(=O)(=O)c1cnn2c(Nc3ccc(F)cc3C)c(C(=O)N3CCC(c4ccccc4)CC3)cnc12` [a-72, Methyl 7-(4-fluoro-2-methylphenylamino)-6-(4-phenylpiperidine-1-carbonyl)pyrazolo[1,5-a]pyrimidin-3-ylsulfonylcarbamate], which inhibition at 0.1 µM is on record?
Answer: 90.7%

Question: With `CCC(=O)NS(=O)(=O)c1cnn2c(Nc3cc(C)ccc3Cl)c(C(=O)N3CCC(c4ccc(F)cc4)CC3)cnc12` [a-13, N-{7-(2-Chloro-5-methylphenylamino)-6-[4-(4-fluorophenyl)piperidine-1-carbonyl]pyrazolo[1,5-a]pyrimidin-3-ylsulfonyl}ethanecarboxamide] as the compound, how does the inhibition at 0.1 µM read?
Answer: > 100%

Question: How did the inhibition at 0.1 µM turn out when `Cc1cc(F)ccc1Nc1c(C(=O)N2CCC(c3ccc(F)cc3)CC2)cnc2c(S(=O)(=O)NC3CC3)cnn12` [a-5, N-Cyclopropyl-7-(4-fluoro-2-methylphenylamino)-6-[4-(4-fluorophenyl)piperidine-1-carbonyl]pyrazolo[1,5-a]pyrimidine-3-sulfonamide] was run?
Answer: > 100%
